Tested on: eyes of allergic subjects challenged with allergen solution (birch, cat hair, cat dander)
Test: Conjunctival allergen challenge (CAC), onset of action and duration of action study
Assay type: in vivo, human
Conditions: for Mean Differences (Active-Placebo), 15 Min Itching, Timepoint 1 / Mean Differences (Active-Placebo), 15 Min Itching, Timepoint 2 / Mean Differences (Active-Placebo), 15 Min Itching, Timepoint 3 / Mean Differences (Active-Placebo), 15 Min Redness, Timepoint 1 / Mean Differences (Active-Placebo), 15 Min Redness, Timepoint 2 / Mean Differences (Active-Placebo), 15 Min Redness, Timepoint 3: challenge 15 min after one drop; for Mean Differences (Active-Placebo), 16 hr Itching, Timepoint 1 / Mean Differences (Active-Placebo), 16 hr Itching, Timepoint 2 / Mean Differences (Active-Placebo), 16 hr Itching, Timepoint 3 / Mean Differences (Active-Placebo), 16 hr Redness, Timepoint 1 / Mean Differences (Active-Placebo), 16 hr Redness, Timepoint 2 / Mean Differences (Active-Placebo), 16 hr Redness, Timepoint 3: challenge 16 hr after one drop
Experimental: These following studies were performed using the standard conjunctival allergen challenge model as described in Abelson et al., Arch Ophthalmol. 108(1): 84-88 (1990), and Abelson et al., Curr Allergy Asthma Rep. 3(4): 363-8 (2003). Each experiment was a double-masked, contralateral placebo controlled, single center, onset of action and duration of action allergen challenge study.
A baseline ocular exam was performed to rule out any subjects with any ocular surface anomaly that would interfere with evaluations. A bilateral conjunctival allergen challenge was performed with the allergen to which the subject was known to be allergic to as evidenced by a skin test or previous conjunctival allergen challenge.
Subjects were administered one drop of masked study medication in each eye as described in the below tables (see Table 1-3). A period of at least 1 week was left between experiments on each single subject. At the specified timepoints, subjects were challenged bilaterally with one drop of allergen solution (allergen used were birch, cat hair, cat dander) at a concentration that was known to historically elicit a positive response (Abelson et al., Arch Ophthalmol. 108(1): 84-88 (1990)). Phosphate buffered saline (PBS) was used as placebo. A historic positive response to the challenge was defined as at least a +2.0 itching and +2.0 redness on scales 0-4, with 0 being none and 4 being severe.
Subjects were asked to grade their ocular itching on standardized scales described in Abelson et al., Arch Ophthalmol. 108(1): 84-88 (1990), scoring was performed from a scale of 0-4 at 3, 5, and 7 minutes post-challenge. Redness was graded by a masked observer on standardized scales 0-4 at 10, 15, and 20 minutes post-challenge. Digital photographs were taken of each eye at the 15 minute timepoint. If needed, subjects were administered one drop of a currently marketed topical anti-allergic medication (Naphcon A™: pheniramine maleate 0.3%/naphthazoline hydrochloride 0.025% ophthalmic solution) to relieve any immediate discomfort at the end of the visit.
Data from all subjects who completed any post-challenge examination was evaluable for that experiment and treatment. Mean itching and redness scores were compared between the treated eye and placebo eye to determine an efficacy score.

[1] = itching scale 0-4, timepoint 1 of 3, 5, 7 min post-challenge
[2] = itching scale 0-4, timepoint 2 of 3, 5, 7 min post-challenge
[3] = itching scale 0-4, timepoint 3 of 3, 5, 7 min post-challenge
[4] = redness scale 0-4, timepoint 1 of 10, 15, 20 min post-challenge
[5] = redness scale 0-4, timepoint 2 of 10, 15, 20 min post-challenge
[6] = redness scale 0-4, timepoint 3 of 10, 15, 20 min post-challenge

| SMILES | Mean Differences (Active-Placebo), 15 Min Itching, Timepoint 1 [1] | Mean Differences (Active-Placebo), 15 Min Itching, Timepoint 2 [2] | Mean Differences (Active-Placebo), 15 Min Itching, Timepoint 3 [3] | Mean Differences (Active-Placebo), 15 Min Redness, Timepoint 1 [4] | Mean Differences (Active-Placebo), 15 Min Redness, Timepoint 2 [5] | Mean Differences (Active-Placebo), 15 Min Redness, Timepoint 3 [6] | Mean Differences (Active-Placebo), 4 hr Itching, Timepoint 1 (challenge 4 hr after one drop, itching scale 0-4, timepoint 1 of 3, 5, 7 min post-challenge) | Mean Differences (Active-Placebo), 4 hr Itching, Timepoint 2 (challenge 4 hr after one drop, itching scale 0-4, timepoint 2 of 3, 5, 7 min post-challenge) | Mean Differences (Active-Placebo), 4 hr Itching, Timepoint 3 (challenge 4 hr after one drop, itching scale 0-4, timepoint 3 of 3, 5, 7 min post-challenge) | Mean Differences (Active-Placebo), 4 hr Redness, Timepoint 1 (challenge 4 hr after one drop, redness scale 0-4, timepoint 1 of 10, 15, 20 min post-challenge) | Mean Differences (Active-Placebo), 4 hr Redness, Timepoint 2 (challenge 4 hr after one drop, redness scale 0-4, timepoint 2 of 10, 15, 20 min post-challenge) | Mean Differences (Active-Placebo), 4 hr Redness, Timepoint 3 (challenge 4 hr after one drop, redness scale 0-4, timepoint 3 of 10, 15, 20 min post-challenge) | Mean Differences (Active-Placebo), 16 hr Itching, Timepoint 1 [1] | Mean Differences (Active-Placebo), 16 hr Itching, Timepoint 2 [2] | Mean Differences (Active-Placebo), 16 hr Itching, Timepoint 3 [3] | Mean Differences (Active-Placebo), 16 hr Redness, Timepoint 1 [4] | Mean Differences (Active-Placebo), 16 hr Redness, Timepoint 2 [5] | Mean Differences (Active-Placebo), 16 hr Redness, Timepoint 3 [6] |
| --- | --- | --- | --- | --- | --- | --- | --- | --- | --- | --- | --- | --- | --- | --- | --- | --- | --- | --- |
| c1ccc(CN(CC2=NCCN2)c2ccccc2)cc1 [Antazoline 0.5%, antazoline] | −2.33 | −2.83 | −2.5 | −0.83 | −0.83 | −1.00 |  |  |  |  |  |  |  |  |  |  |  |  |
| CN1CCCC(n2nc(Cc3ccc(Cl)cc3)c3ccccc3c2=O)CC1 (stereo not drawn) [Azelastine 0.05%, azelastine] | −2.5 | −2.5 | −2.5 | 0 | 0 | 0 | −0.5 | −1.0 | −1.0 | +0.5 | +1.0 | +1.0 |  |  |  |  |  |  |
| CN1CCC(=C2c3ccccc3CC(=O)c3sccc32)CC1 [Keto 0.05%, ketotifen] | −2.00 | −2.33 | −2.00 | −1.50 | −1.17 | −1.50 |  |  |  |  |  |  | 0.75 | 0.25 | 0.25 | 0.5 | 0.5 | 0.25 |
| CN(C)CCC(c1ccccc1)c1ccccn1 (stereo not drawn) [Pheniramine 0.5%, pheniramine] | −2.67 | −2.33 | −2.17 | −1.67 | −1.83 | −1.67 |  |  |  |  |  |  | −0.25 | 0 | 0 | 0.25 | 0.25 | 0.25 |

— patent US20040198828A1, “Combinational use of long-acting and short-acting anti-histamines for ocular allergies” (priority 2003, published 2004)
